Data on 17 compounds can be found in US20080200473A1, “Imidazo [1,2-a]Pyridine Compounds, Compositions, Uses and Methods Thereto” (Ferrer Internacional, S.A., priority 2004, published 2008).

One assay has as its system α1-GABAA receptor. Description: Ligand-binding assay, competitive with radiolabeled flumazenil, cerebellum membranes. To be noted: Affinity for α1-GABAA receptor, rat cerebellum membranes, radiolabeled flumazenil 1 nM; for % Inhibition 10^−5M: 10^-5M test compound; for % Inhibition 10^−7M: 10^-7M test compound. As to the method:
(§1) Ligand-binding assays. Determination of the affinity of test compounds for α1- and α2-GABAA receptor.
(§2) Male Sprague-Dawley rats weighing 200-250 g at the time of experiment were used. After decapitation of the animal, the cerebellum (tissue that mostly contains α1-GABAA receptor) and spinal cord (tissue that mostly contains α2-GABAA receptor) were removed. The membranes were prepared according to the method by J. Lameh et al. (Prog. Neuro-Psychopharmacol. Biol. Psychiatry, 24, 979-991, 2000) and H. Noguchi et al. (Eur. J. Pharm., 434, 21-28, 2002). Once the tissues weighed, they were suspended in 50 mM Tris.HCl (pH 7.4), 1:40 (w/v), or sucrose 0.32 M in the case of spinal cord, homogenized and then centrifuged at 20,000 g for 10 min at 7° C. twice. The resulting pellet was resuspended under the same conditions and centrifuged again. The pellet was finally resuspended on a minimum volume and kept at −80° C. overnight. On the next day, the process was repeated until the final pellet was resuspended at a ratio of 1:10 (w/v) in the case of cerebellum and at a ratio of 1:5 (w/v) in the case of spinal cord.
(§3) Affinity was determined by competitive tests using radiolabeled flumazenil as ligand. The tests were performed according to the methods described by S. Arbilla et al. (Eur. J. Pharmacol., 130, 257-263, 1986); and Y. Wu et al. (Eur. J. Pharmacol., 278, 125-132, 1995) using 96-well microtiter plates. The membranes containing the study receptors, flumazenil (radiolabeling at a final concentration of 1 nM) and ascending concentrations of test compounds (in a total volume of 230 μL in 50 mM [ph 7.4] Tris.HCl buffer) were incubated. Simultaneously, the membranes were only incubated with the radiolabeled flumazenil (total binding, 100%) and in the presence of an elevated concentration of unradiolabeled flumazenil (non-specific binding, % estimation of radiolabeled ligand). The reactions started on adding the radiolabeled ligand followed by incubation for 60 minutes at 4° C. At the end of the incubation period, 200 μL of reaction were transferred to a multiscreen plate (Millipore) and filtered using a vacuum manifold and then washed three times with cold test buffer. The multiscreen plates were equipped with a GF/B filter that retained the membranes containing the receptors and the radiolabeled ligand which has been bound to the receptors. After washing, the plates were left till dry. Once dried, scintillation liquid was added and left under stirring overnight. The next day the plates were counted using a Perkin-Elmer Microbeta scintillation counter.
(§4) For analysis of the results the percentage of specific binding for every concentration of test compound was calculated as follows:
(§5) % specific binding=(X−N/T−N)×100
(§6) where, X: amount of bound ligand for every concentration of compound. T: total binding, maximum amount bound to the radiolabeled ligand. N: non-specific binding, amount of radiolabeled ligand bound in a non-specific way irrespective of the receptor used.
(§7) Every concentrations of compound were tested in triplicate and their mean values were used to determine the experimental values of % specific binding versus the concentration of compound. Affinity data are expressed as % inhibition at 10^-5M and 10^-7M concentrations.

Another assay concerns α2-GABAA receptor. The experiment in a line: Ligand-binding assay, competitive with radiolabeled flumazenil, spinal cord membranes. To be noted: Affinity for α2-GABAA receptor, rat spinal cord membranes, radiolabeled flumazenil 1 nM; for % Inhibition 10^−5M: 10^-5M test compound; for % Inhibition 10^−7M: 10^-7M test compound. The protocol: as §1, §2, §3, §4, §5, §6, §7

In a further assay the test system is mice. The experiment in a line: In vivo predictive sedation-hypnosis test (inhibition of traveled distance). The arrangement: species or system mouse. To be noted: male CD1 mice; single equimolecular intraperitoneal doses; traveled distance over 30 min after dosing (first 5 min discarded) versus control. As to the method: In vivo determination of predictive sedative-hypnotic action.
The in vivo effects of these compounds were assessed by a predictive sedation-hypnosis test in mice (D. J. Sanger et al., Eur. J. Pharmacol., 313, 35-42, 1996; and G. Griebel et al., Psychopharmacology, 146, 205-213, 1999).
Groups of 5-8 male CD1 mice, weighing 22-26 g at the time of test, were used. The test compounds were administered in single equimolecular intraperitoneal doses, suspended in 0.25% agar with one drop of Tween in a volume of 10 mL/kg. Control animals received the vehicle alone. Using a Smart System (Panlab, S. L., Spain) the traveled distance in cm is recorded for each mouse at 5-min intervals during a period of 30 minutes after dosing. The inhibition percentage of traveled distance of treated animals versus control animals (the first 5 min were discarded) was calculated.

With `Cc1ccc(-c2nc3ccc(C)cn3c2CNC(=O)c2ccc(N(C)C)cc2)cc1` [Example 3, 4-Dimethylamino-N-(6-methyl-2-p-tolyl-imidazo[1,2-a]pyridin-3-ylmethyl)-benzamide], in the assay on α1-GABAA receptor, the “% Inhibition 10^−5M” value turned out to be 73.9% and the “% Inhibition 10^−7M” value was 21.4%. In the assay with α2-GABAA receptor, the “% Inhibition 10^−5M” value is listed as 17.4% and the “% Inhibition 10^−7M” value came out at 0.0%. Moreover, in the assay on mice, the “% Inhibition Motor Activity” value is 45.59%.
In the case of `Cc1ccc(-c2nc3ccc(C)cn3c2CNC(=O)c2ccco2)cc1` [Example 4, Furan-2-carboxylic acid (6-methyl-2-p-tolyl-imidazo[1,2-a]pyridin-3-ylmethyl)-amide], in the assay on α1-GABAA receptor, the “% Inhibition 10^−5M” value turned out to be 97.4% and the “% Inhibition 10^−7M” value is given as 19.4%. In the assay with α2-GABAA receptor, the “% Inhibition 10^−5M” value came to 82.9% and the “% Inhibition 10^−7M” value is given as 0.0%. Further, the “% Inhibition Motor Activity” value in the assay with mice is given as 73.28%.
With `Cc1ccc(-c2nc3ccc(C)cn3c2CNC(=O)c2ccccn2)cc1` [Example 5, Pyridine-2-carboxylic acid (6-methyl-2-p-tolyl-imidazo[1,2-a]pyridin-3-ylmethyl)-amide], in the assay on α1-GABAA receptor, the “% Inhibition 10^−5M” value is 99.8% and the “% Inhibition 10^−7M” value is reported as 75.5%. Further, in the assay with α2-GABAA receptor, the “% Inhibition 10^−5M” value is reported as 95.3% and the “% Inhibition 10^−7M” value is given as 28.4%. Also, in the assay on mice, the “% Inhibition Motor Activity” value was 90.40%.
With `Cc1ccc(-c2nc3ccc(C)cn3c2CNC(=O)c2ccc(C)n2C)cc1` [Example 6, 1,5-Dimethyl-1H-pyrrole-2-carboxylic acid (6-methyl-2-p-tolyl-imidazo[1,2-a]pyridin-3-ylmethyl)-amide], in the assay with α1-GABAA receptor, the “% Inhibition 10^−5M” value was determined as 96.1% and the “% Inhibition 10^−7M” value is on record as 22.5%. Besides, in the assay with α2-GABAA receptor, the “% Inhibition 10^−5M” value worked out at 64.4% and the “% Inhibition 10^−7M” value is 0.0%. In the assay on mice, the “% Inhibition Motor Activity” value is reported as 78.09%.
With `Cc1ccc(-c2nc3ccc(C)cn3c2CNC(=O)c2ccncc2)cc1` [Example 7, N-(6-Methyl-2-p-tolyl-imidazo[1,2-a]pyridin-3-ylmethyl)-isonicotinamide], in the assay on α1-GABAA receptor, the “% Inhibition 10^−5M” value is 98.0% and the “% Inhibition 10^−7M” value came to 36.5%. Further, in the assay on α2-GABAA receptor, the “% Inhibition 10^−5M” value stood at 81.3% and the “% Inhibition 10^−7M” value stood at 0.0%. Further, the “% Inhibition Motor Activity” value with mice is given as 72.45%.
On the same counts, the results for `COc1ccc(C(=O)NCc2c(-c3ccc(C)cc3)nc3ccc(C)cn23)cc1` [Example 11, 4-Methoxy-N-(6-methyl-2-p-tolyl-imidazo[1,2-a]pyridin-3-ylmethyl)-benzamide] are 70.7%, 29.0%, 6.5%, 0.0% and 55.43%.
As for `CC(=O)c1ccc(C(=O)NCc2c(-c3ccc(C)cc3)nc3ccc(C)cn23)cc1` [Example 12, 4-Acetyl-N-(6-methyl-2-p-tolyl-imidazo[1,2-a]pyridin-3-ylmethyl)-benzamide], the “% Inhibition 10^−5M” value with α1-GABAA receptor is reported as 73.7%; with α2-GABAA receptor it was 19.0%. Besides, the “% Inhibition 10^−7M” value is 18.6% with α1-GABAA receptor and 0.0% in the assay on α2-GABAA receptor. Besides, the “% Inhibition Motor Activity” value in the assay with mice is 56.84%.
Take `Cc1ccc(-c2nc3ccc(C)cn3c2CNC(=O)C2CC2)cc1` [Example 13, Cyclopropanecarboxylic acid (6-methyl-2-p-tolyl-imidazo[1,2-a]pyridin-3-ylmethyl)-amide]: the “% Inhibition 10^−5M” value in the assay on α1-GABAA receptor is on record as 97.6%; with α2-GABAA receptor it was 67.8%. The figures for the “% Inhibition 10^−7M” value in the assay with α1-GABAA receptor and in the assay with α2-GABAA receptor were 53.8% and 0.0%, respectively. Besides, the “% Inhibition Motor Activity” value in the assay on mice was 90.36%.
On the same counts, the results for `Cc1ccc(-c2nc3ccc(C)cn3c2CNC(=O)c2ccc([N+](=O)[O-])o2)cc1` [Example 14, 5-Nitro-furan-2-carboxylic acid (6-methyl-2-p-tolyl-imidazo[1,2-a]pyridin-3-ylmethyl)-amide] are 99.4%, 92.2%, 51.4%, 26.2% and 89.82%.
For the compound `Cc1ccc(-c2nc3ccc(C)cn3c2CNC(=O)c2occc2C)cc1` [Example 15, 3-Methyl-furan-2-carboxylic acid (6-methyl-2-p-tolyl-imidazo[1,2-a]pyridin-3-ylmethyl)-amide], in the assay on α1-GABAA receptor, the “% Inhibition 10^−5M” value is reported as 74.5% and the “% Inhibition 10^−7M” value is given as 0.0%. In the assay with α2-GABAA receptor, the “% Inhibition 10^−5M” value worked out at 41.6% and the “% Inhibition 10^−7M” value is listed as 0.0%. Moreover, the “% Inhibition Motor Activity” value with mice is recorded as 80.12%.
`Cc1ccc(-c2nc3ccc(C)cn3c2CNC(=O)/C=C/c2ccco2)cc1` [Example 80, 3-Furan-2-yl-N-(6-methyl-2-p-tolyl-imidazo[1,2-a]pyridin-3-ylmethyl)-acrylamide]: in the assay with α1-GABAA receptor, the “% Inhibition 10^−5M” value came out at 88.9% and the “% Inhibition 10^−7M” value was 0.0%. The “% Inhibition Motor Activity” value in the assay on mice is 61.89%.
Regarding `Cc1ccc(-c2nc3ccc(C)cn3c2CNC(=O)c2ccsc2)cc1` [Example 82, Thiophene-3-carboxylic acid (6-methyl-2-p-tolyl-imidazo[1,2-a]pyridin-3-ylmethyl)-amide], in the assay with α1-GABAA receptor, the “% Inhibition 10^−5M” value is on record as 98.7% and the “% Inhibition 10^−7M” value was 33.0%. In the assay with mice, the “% Inhibition Motor Activity” value is given as 61.93%.
Regarding `Cc1ccc(-c2nc3ccc(C)cn3c2CNC(=O)c2cc(C)n(C3CC3)c2C)cc1` [Example 84, 1-Cyclopropyl-2,5-dimethyl-1H-pyrrole-3-carboxylic acid (6-methyl-2-p-tolyl-imidazo[1,2-a]pyridin-3-ylmethyl)-amide], the “% Inhibition Motor Activity” value in the assay on mice is reported as 36.32%.
Consider `Cc1ccc(-c2nc3ccc(C)cn3c2CNC(=O)c2cc(F)c(Cl)cc2Cl)cc1` [Example 87, 2,4-Dichloro-5-fluoro-N-(6-methyl-2-p-tolyl-imidazo[1,2-a]pyridin-3-ylmethyl)-benzamide], for which, in the assay on mice, the “% Inhibition Motor Activity” value is reported as 48.13%.
In the case of `Cc1ccc(-c2nc3ccc(C)cn3c2CNC(=O)c2csc([N+](=O)[O-])c2)cc1` [Example 88, 5-Nitro-thiophene-3-carboxylic acid (6-methyl-2-p-tolyl-imidazo[1,2-a]pyridin-3-ylmethyl)-amide], in the assay on α1-GABAA receptor, the “% Inhibition 10^−5M” value worked out at 96.2% and the “% Inhibition 10^−7M” value amounted to 0.0%. Moreover, in the assay with mice, the “% Inhibition Motor Activity” value is on record as 51.87%.
On to `Cc1ccc(-c2nc3ccc(C)cn3c2CN(C)C(=O)c2cnccn2)cc1` [Example 96, Pyrazine-2-carboxylic acid methyl-(6-methyl-2-p-tolyl-imidazo[1,2-a]pyridin-3-ylmethyl)-amide], for which, in the assay on α1-GABAA receptor, the “% Inhibition 10^−5M” value is reported as 99.9% and the “% Inhibition 10^−7M” value was determined as 80.5%. In addition, the “% Inhibition Motor Activity” value with mice is on record as 44.04%.
With `Cc1ccc(-c2nc3ccc(C)cn3c2CN(C)C(=O)c2cnoc2C)cc1` [Example 99, 5-Methyl-isoxazole-4-carboxylic acid methyl-(6-methyl-2-p-tolyl-imidazo[1,2-a]pyridin-3-ylmethyl)-amide], in the assay with α1-GABAA receptor, the “% Inhibition 10^−5M” value was 99.2% and the “% Inhibition 10^−7M” value was 52.5%. Further, the “% Inhibition Motor Activity” value with mice was 13.33%.
